# Key:
# [1] = test system: adult cat fleas (Ctenocephalides felis); assay: Ctenocephalides felis in vitro contact test with adult cat fleas (T1); conditions: application rate 5 μg/cm^2; after 48 h
# Experimental: T1. Ctenocephalides felis—in vitro Contact Tests with Adult Cat Fleas
# (§1) For the coating of the test tubes, initially 9 mg of active compound are dissolved in 1 ml of acetone p.a. and then diluted with acetone p.a. to the desired concentration. By turning and rocking on an orbital shaker (2 h of rocking rotation at 30 rpm), 250 μl of the solution are distributed homogeneously on the internal walls and the floor of a 25 ml test tube. At 900 ppm active compound solution and 44.7 cm^2 internal surface, an area dose of 5 μg/cm^2 is achieved for homogeneous distribution.
# After evaporation of the solvent, the tubes are populated with 5-10 adult cat fleas (Ctenocephalides felis), sealed with a perforated plastic lid and incubated in a horizontal position at room temperature and ambient humidity. After 48 h, the efficacy is determined. To this end, the test tubes are stood upright and the fleas are knocked to the floor of the tube. Fleas which remain motionless on the floor or move in an uncoordinated manner are considered to be dead or moribund.
# An efficacy of 100% means that all fleas were dead or moribund. 0% efficacy means that none of the fleas had been damaged.
# [2] = test system: adult dog ticks (Rhipicephalus sanguineus); assay: Rhipicephalus sanguineus in vitro contact test with adult brown dog ticks (T2); conditions: after 48 h
# Experimental: T2. Rhipicephalus sanguineus-in vitro Contact Tests with Adult Brown Dog Ticks
# as §1
# After evaporation of the solvent, the tubes are populated with 5-10 adult dog ticks (Rhipicephalus sanguineus), sealed with a perforated plastic lid and incubated in a horizontal position in the dark at room temperature and ambient humidity. After 48 h, the efficacy is determined. To this end, the ticks are knocked to the floor of the tube and incubated on a hotplate at 45-50° C. for at most 5 min Ticks which remain motionless on the floor or move in an uncoordinated manner such that they are not able to deliberately avoid the heat by climbing upwards are considered to be dead or moribund.
# An efficacy of 100% means that all ticks were dead or moribund. 0% efficacy means that none of the ticks had been damaged.
# [3] = logP determination by HPLC on a reversed-phase column (C18), EEC Directive 79/831 Annex V.A8; assay type: physicochemical; conditions: HPLC on reversed-phase column (C18), acetonitrile/water with formic acid, EEC Directive 79/831 Annex V.A8
# Experimental: (§2) ^a) Note regarding the determination of the logP values and mass detection: The determination of the given logP values was carried out in accordance with EEC Directive 79/831 Annex V.A8 by HPLC (High Performance Liquid Chromatography) on a reversed-phase column (C18). Agilent 1100 LC system; 50*4.6 Zorbax Eclipse Plus C18 1.8 micron; mobile phase A: acetonitrile (0.1% formic acid); mobile phase B: water (0.09% formic acid); linear gradient from 10% acetonitrile to 95% acetonitrile in 4.25 min, then 95% acetonitrile for a further 1.25 min; oven temperature 55° C.; flow rate: 2.0 ml/min. Mass detection is carried out via an Agilend MSD system.
# as §2, with “^*)” for “^a)”
# [4] = test system: larvae of the mustard beetle (Phaedon cochleariae); assay: Phaedon cochleariae spray test (PHAECO); assay type: in vivo; conditions: Chinese cabbage leaf discs, after 7 days
# Experimental: H. Phaedon cochleariae-spray Test (PHAECO)
# Solvents: 78.0 parts by weight of acetone
# (§3) • 1.5 parts by weight of dimethylformamide Emulsifier: alkylaryl polyglycol ether
# (§4) To produce a suitable preparation of active compound, 1 part by weight of active compound is dissolved using the stated parts by weight of solvent and made up with water comprising an emulsifier concentration of 1000 ppm until the desired concentration is reached. To produce further test concentrations, the preparation is diluted with emulsifier-containing water.
# After 7 days, the efficacy in % is determined. 100% means that all of the beetle larvae have been killed; 0% means that none of the beetle larvae have been killed.
# [5] = test system: caterpillars of the armyworm (Spodoptera frugiperda); assay: Spodoptera frugiperda spray test (SPODFR); assay type: in vivo; conditions: maize leaf discs, after 7 days
# Experimental: I. Spodoptera frugiperda-spray Test (SPODFR)
# (§5) Solvent: 78.0 parts by weight of acetone
# as §3, §4
# Leaf discs of maize (Zea mays) are sprayed with an active compound preparation of the desired concentration and, after drying, populated with caterpillars of the armyworm (Spodoptera frugiperda).
# After 7 days, the efficacy in % is determined. 100% means that all of the caterpillars have been killed; 0% means that none of the caterpillars have been killed.
# [6] = test system: greenhouse red spider mite (Tetranychus urticae); assay: Tetranychus urticae spray test, OP-resistant (TETRUR); assay type: in vivo; conditions: bean leaf discs, after 6 days
# Experimental: J. Tetranychus urticae-spray Test, OP-Resistant (TETRUR)
# as §5, §3, §4
# Discs of bean leaves (Phaseolus vulgaris) which are infested by all stages of the greenhouse red spider mite (Tetranychus urticae) are sprayed with an active compound preparation of the desired concentration.
# After 6 days, the efficacy in % is determined. 100% means that all of the spider mites have been killed; 0% means that none of the spider mites have been killed.
SMILES,efficacy (dead or moribund fleas) [1] [%],efficacy (dead or moribund ticks) ([2]; application rate 1 μg/cm^2) [%],logP [3],efficacy in % ([4]; application rate 100 g/ha) [%],efficacy in % ([5]; application rate 100 g/ha) [%],efficacy in % ([6]; application rate 100 g/ha) [%],efficacy in % ([4]; application rate 500 g/ha) [%],efficacy in % ([5]; application rate 500 g/ha) [%],efficacy in % ([6]; application rate 500 g/ha) [%],efficacy (dead or moribund ticks) ([2]; application rate 5 μg/cm^2) [%]
Cc1cc(NC(=O)c2cc(-c3cnn(-c4c(C(F)(F)F)c(C(F)(F)C(F)(F)F)nn4C)c3)ccc2Cl)no1 [Ic-148],100,80,,,,,,,,
Cn1nc(C(F)(F)F)c(C(F)(F)F)c1-n1cc(-c2ccc(Cl)c(C(=O)NCCF)c2)cn1 [Ic-168],,,3.24,100,83,100,,,,
Cn1nc(C(F)(F)F)c(C(F)(F)F)c1-n1cc(-c2ccc(Cl)c(C(=O)NCC(F)(F)F)c2)cn1 [Ic-169],,,3.71,100,100,100,,,,
Cn1nc(C(F)(F)F)c(C(F)(F)F)c1-n1cc(-c2ccc(Cl)c(C(=O)NCC(F)F)c2)cn1 [Ic-170],,,3.43,100,100,100,,,,
Cn1nc(C(F)(F)C(F)(F)F)c(C(F)(F)F)c1-n1cc(-c2cc(C(=O)NC3CC3)cc3c2OC(F)(F)O3)cn1 [Ic-171],,,,,,,100,100,90,
CCOC1(NC(=O)c2cc(-c3cnn(-c4c(C(F)(F)F)c(C(F)(F)C(F)(F)F)nn4C)c3)ccc2Cl)CC1 [Ic-176],,,4.08,,,,100,100,100,
Cn1nc(C(F)(F)F)c(C(F)(F)F)c1-n1cc(-c2ccc(Cl)c(C(=O)NC3CC3F)c2)cn1 (centres unmarked) [Ic-177],,,3.41,100,100,100,,,,
CCOC1C(C)C1NC(=O)c1cc(-c2cnn(-c3c(C(F)(F)F)c(C(F)(F)C(F)(F)F)nn3C)c2)ccc1Cl (centres unmarked) [Ic-183],,,4.34,,,,100,100,100,
Cn1nc(C(F)(F)C(F)(F)F)c(C(F)(F)F)c1-n1cc(-c2ccc(Cl)c(C(=O)NC3CC3(Cl)Cl)c2)cn1 (centres unmarked) [Ic-184],,,4.34,,,,100,100,100,
Cn1nc(C(F)(F)C(F)(F)F)c(C(F)(F)F)c1-n1cc(-c2ccc([S+](C)[O-])c(C(=O)NC3CC3)c2)cn1 (centres unmarked) [Ic-189],,,3.19,100,,100,,,,
C#CC(C)NC(=O)c1cc(-c2cnn(-c3c(C(F)(F)F)c(C(F)(F)C(F)(F)F)nn3C)c2)ccc1Cl (centres unmarked) [Ic-193],,,3.97,,,,100,100,100,
CC#CC(C)NC(=O)c1cc(-c2cnn(-c3c(C(F)(F)F)c(C(F)(F)C(F)(F)F)nn3C)c2)ccc1Cl (centres unmarked) [Ic-198],,,4.27,,,,100,100,100,
Cn1nc(C(F)(F)C(F)(F)F)c(C(F)(F)F)c1-n1cc(-c2ccc(Cl)c(C(=O)NC3(C)CC3)c2)cn1 [Ic-200],,,4.12,,,,100,100,100,
Cn1nc(C(F)(F)C(F)(F)F)c(C(F)(F)F)c1-n1cc(-c2cc(C(=O)NC3CC3)c(F)c(F)c2F)cn1 [Ic-201],,100,,,,,,,,100

# — US9487489B2, “Halogen-substituted pyrazole derivatives as pest-control agents” (BAYER CROPSCIENCE AKTIENGESELLSCHAFT, priority 2013, dated 2016)
